The numbers were not newly measured in patent US8586092B2 (Xi'an Libang Pharmaceutical Technology Co., Ltd., priority 2009, dated 2013), which cites them from elsewhere.

One series deals with rat. Particulars: orally administered to rat.
The subject of a further series is mouse. The note with it: in vivo, sc.

The term LD50 denotes the dose expected to kill half of the subjects tested. Take `O=C(OCc1ccccc1)c1ccccc1` [Benzyl benzoate]: in the series on rat, the LD50 was 500 mg/kg. With `C[C@]12CC[C@@H]3c4ccc(O)cc4C[C@@H](CCCCCCCCC[S+]([O-])CCCC(F)(F)C(F)(F)F)[C@H]3[C@@H]1CC[C@@H]2O` (stereo partly drawn) [Fulvestrant, 7-alpha-[9-(4,4,5,5,5-pentafluoropentylsulphinyl)nonyl]estra-1,3,5-(10)-triene-3,17-beta-diol], the aqueous solubility result is on record as “around 10 ng/ml”. As for `CCO` [ethanol], the LD50 in the series with mouse is 8285 mg/kg.
